Experimental data from patent publication US7863449B2, “Modulators of muscarinic receptors” (Vertex Pharmaceuticals Incorporated, priority 2004, dated 2011).

How the values were obtained:
M4 muscarinic receptor = biological target: T1, M4 muscarinic receptor (Homo sapiens, UniProt P08173); experiment: Functional mobilization of intracellular calcium (FLIPR), M4-CHO cells; type: cell-based; details: for Emax: 100% efficacy is the maximum response obtained using Carbachol as a control; for M4 Activity: M4-CHO cells, FLIPR calcium mobilization
T1 construct: expressed in transfected cells; host or cells: CHO (M4-CHO)
T1 sequence (P08173 1-479): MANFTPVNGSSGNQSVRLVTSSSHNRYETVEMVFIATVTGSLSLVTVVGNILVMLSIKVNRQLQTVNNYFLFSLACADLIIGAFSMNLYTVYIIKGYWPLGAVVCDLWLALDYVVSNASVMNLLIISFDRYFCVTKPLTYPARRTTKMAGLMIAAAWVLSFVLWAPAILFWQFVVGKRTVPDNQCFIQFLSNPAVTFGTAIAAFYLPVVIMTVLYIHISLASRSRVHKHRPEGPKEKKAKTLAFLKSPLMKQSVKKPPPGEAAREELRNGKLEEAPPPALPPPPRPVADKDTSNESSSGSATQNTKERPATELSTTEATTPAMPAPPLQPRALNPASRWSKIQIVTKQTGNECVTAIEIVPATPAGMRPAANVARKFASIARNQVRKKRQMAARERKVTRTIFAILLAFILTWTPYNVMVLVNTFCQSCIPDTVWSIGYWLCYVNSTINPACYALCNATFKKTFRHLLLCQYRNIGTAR
Outline: (§1)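 CHO cells expressing M1 or M4, loaded with Fluo-3 AM or Calcium 3 dye with 1 mM probenecid, 0.5% DMSO final. Agonist mode: compound added directly; antagonist mode: 15 min pre-incubation (or co-application) before carbachol at EC80. Fluorescence recorded 60 s on FLIPR.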

M1 muscarinic receptor = biological target: T2, M1 muscarinic receptor (Homo sapiens, UniProt P11229); experiment: Functional mobilization of intracellular calcium (FLIPR), M1-CHO cells; type: cell-based; details: for Emax: 100% efficacy is the maximum response obtained using Carbachol as a control; for M1 Activity: M1-CHO cells, FLIPR calcium mobilization
T2 construct: expressed in transfected cells; host or cells: CHO (M1-CHO)
T2 sequence (P11229 1-460): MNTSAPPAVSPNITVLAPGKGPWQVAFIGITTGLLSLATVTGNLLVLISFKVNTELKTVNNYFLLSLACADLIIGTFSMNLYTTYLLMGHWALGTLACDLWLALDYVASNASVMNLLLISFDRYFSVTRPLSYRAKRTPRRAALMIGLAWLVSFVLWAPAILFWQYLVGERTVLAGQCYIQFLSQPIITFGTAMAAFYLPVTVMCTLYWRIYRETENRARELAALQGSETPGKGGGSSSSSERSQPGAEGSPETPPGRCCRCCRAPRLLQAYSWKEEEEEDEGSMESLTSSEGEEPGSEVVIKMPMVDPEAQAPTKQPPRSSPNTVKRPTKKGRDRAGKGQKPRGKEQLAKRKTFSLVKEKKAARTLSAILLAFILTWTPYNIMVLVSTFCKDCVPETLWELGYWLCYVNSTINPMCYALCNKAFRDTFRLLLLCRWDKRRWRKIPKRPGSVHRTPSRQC
Outline: as §1

SMILES | Emax (M4 muscarinic receptor) [%] | M4 Activity (M4 muscarinic receptor) | Emax (M1 muscarinic receptor) [%] | M1 Activity (M1 muscarinic receptor)
CCOC(=O)N1C2CCC1CC(N1CCC3(CC1)CN(C(=O)NC1CCCC1)Cc1ccccc13)C2 (stereo not shown) [compound 321] | 25 to 100 | +++ (activity was measured to be less than 1.0 μM) | 25 to 100 | +++ (activity was measured to be less than 1.0 μM)
CC(=O)N1Cc2ccccc2C2(CCN(Cc3ccccc3C#N)CC2)C1 [compound 322] | < 25 | + (activity was measured to be greater than 5.0 μM) | < 25 | + (activity was measured to be greater than 5.0 μM)
CSC(C)CCN1CCC2(CC1)NC(=O)c1ccccc12 (stereo not shown) [compound 323] | < 25 | + (activity was measured to be greater than 5.0 μM) | < 25 | + (activity was measured to be greater than 5.0 μM)
CCOC(=O)N1C2CCC1CC(N1CCC3(CC1)CN(S(=O)(=O)c1cccc(F)c1)Cc1ccccc13)C2 (stereo not shown) [compound 324] | 25 to 100 | +++ (activity was measured to be less than 1.0 μM) | 25 to 100 | +++ (activity was measured to be less than 1.0 μM)
CCCC1CCC(N2CCC3(CC2)CN(C(C)=O)Cc2ccccc23)CC1 (stereo not shown) [compound 326] | 25 to 100 | +++ (activity was measured to be less than 1.0 μM) | 25 to 100 | +++ (activity was measured to be less than 1.0 μM)
CN(C)C(=O)N1Cc2ccccc2C2(CCN(C3CC4CCC(C3)N4C(=O)OC3CCC3)CC2)C1 (stereo not shown) [compound 327] | 25 to 100 | +++ (activity was measured to be less than 1.0 μM) | 25 to 100 | +++ (activity was measured to be less than 1.0 μM)
CCOC(=O)N1CCC(N2CCC3(CC2)CN(C(=O)c2snnc2C)Cc2ccccc23)CC1 [compound 328] | 25 to 100 | +++ (activity was measured to be less than 1.0 μM) | 25 to 100 | +++ (activity was measured to be less than 1.0 μM)
CCOC(=O)N1CCC(CN2CCC3(CC2)CN(C(=O)c2cnon2)Cc2ccccc23)CC1 [compound 329] | 25 to 100 | +++ (activity was measured to be less than 1.0 μM) | 25 to 100 | +++ (activity was measured to be less than 1.0 μM)
CCOC(=O)N1CCC(CN2CCC3(CC2)CN(C(=O)c2ccccn2)Cc2ccccc23)CC1 [compound 330] | 25 to 100 | +++ (activity was measured to be less than 1.0 μM) | 25 to 100 | +++ (activity was measured to be less than 1.0 μM)
CC(=O)N1Cc2ccccc2C2(CCN(Cc3cc(C)ccc3F)CC2)C1 [compound 331] | < 25 | + (activity was measured to be greater than 5.0 μM) | < 25 | + (activity was measured to be greater than 5.0 μM)
CC(=O)N1Cc2ccccc2C2(CCN(Cc3cccc(C)n3)CC2)C1 [compound 334] | < 25 | + (activity was measured to be greater than 5.0 μM) | < 25 | + (activity was measured to be greater than 5.0 μM)
CC(=O)N1Cc2ccccc2C2(CCN(Cc3ccc(C(C)O)cc3)CC2)C1 (stereo not shown) [compound 335] | < 25 | + (activity was measured to be greater than 5.0 μM) | < 25 | + (activity was measured to be greater than 5.0 μM)
CCOC(=O)N1CCC(N2CCC3(CC2)CN(S(=O)(=O)c2ccc(F)cc2)Cc2ccccc23)CC1 [compound 337] | 25 to 100 | +++ (activity was measured to be less than 1.0 μM) | 25 to 100 | +++ (activity was measured to be less than 1.0 μM)
CCOC(=O)N1CCC(N2CCC3(CC2)CN(C(=O)Oc2ccc(F)cc2)Cc2ccccc23)CC1 [compound 342] | 25 to 100 | +++ (activity was measured to be less than 1.0 μM) | 25 to 100 | +++ (activity was measured to be less than 1.0 μM)
CCOC(=O)N1C2CCC1CC(N1CCC3(CC1)CN(C(=O)N1CCCCC1)Cc1ccccc13)C2 (stereo not shown) [compound 344] | 25 to 100 | +++ (activity was measured to be less than 1.0 μM) | 25 to 100 | +++ (activity was measured to be less than 1.0 μM)
CCOC(=O)N1CCC(CN2CCC3(CC2)CN(S(=O)(=O)c2ccc(F)cc2)Cc2ccccc23)CC1 [compound 345] | 25 to 100 | +++ (activity was measured to be less than 1.0 μM) | 25 to 100 | +++ (activity was measured to be less than 1.0 μM)
CC(C)(C)CCN1CCC2(CC1)NC(=O)c1ccccc12 [compound 346] | 25 to 100 | ++ (activity was measured to be from 1.0 μM to 5.0 μM) | 25 to 100 | ++ (activity was measured to be from 1.0 μM to 5.0 μM)
O=C1c2ccccc2C2(CCN(C3CCCCCC3)CC2)N1Cc1ccccc1 [compound 347] | < 25 | + (activity was measured to be greater than 5.0 μM) | 25 to 100 | + (activity was measured to be greater than 5.0 μM)
CC(=O)N1Cc2ccccc2C2(CCN(C3CC4CCC(C3)N4C(=O)OC3CCC3)CC2)C1 (stereo not shown) [compound 348] | 25 to 100 | +++ (activity was measured to be less than 1.0 μM) | 25 to 100 | +++ (activity was measured to be less than 1.0 μM)
CC(=O)N1Cc2ccccc2C2(CCN(C3CCCCCC3)CC2)C1 [compound 349] | 25 to 100 | +++ (activity was measured to be less than 1.0 μM) | 25 to 100 | +++ (activity was measured to be less than 1.0 μM)
CCOC(=O)N1C2CCC1CC(N1CCC3(CC1)CN(C(=O)NC(C)C)Cc1ccccc13)C2 (stereo not shown) [compound 350] | 25 to 100 | +++ (activity was measured to be less than 1.0 μM) | 25 to 100 | +++ (activity was measured to be less than 1.0 μM)
Cc1cc(C(=O)N2Cc3ccccc3C3(CCN(C4CC5CCC(C4)N5C(=O)O[C@@H]4CCOC4)CC3)C2)nn1C (stereo partly shown) [compound 351] | 25 to 100 | +++ (activity was measured to be less than 1.0 μM) | 25 to 100 | +++ (activity was measured to be less than 1.0 μM)
O=C1NC2(CCN(CC3CCOC3)CC2)c2ccccc21 (stereo not shown) [compound 352] | < 25 | + (activity was measured to be greater than 5.0 μM) | < 25 | + (activity was measured to be greater than 5.0 μM)
CCCOC(=O)N1C2CCC1CC(N1CCC3(CC1)CN(S(=O)(=O)CCC)Cc1ccccc13)C2 (stereo not shown) [compound 353] | 25 to 100 | +++ (activity was measured to be less than 1.0 μM) | 25 to 100 | +++ (activity was measured to be less than 1.0 μM)
CC(=O)N1Cc2ccccc2C2(CCN(C3CC4CCC(C3)N4C(=O)O[C@H]3CCOC3)CC2)C1 (stereo partly shown) [compound 354] | 25 to 100 | +++ (activity was measured to be less than 1.0 μM) | 25 to 100 | +++ (activity was measured to be less than 1.0 μM)
CCOC(=O)N1C2CCC1CC(N1CCC3(CC1)CN(S(=O)(=O)c1ccc(C#N)cc1)Cc1ccccc13)C2 (stereo not shown) [compound 355] | 25 to 100 | +++ (activity was measured to be less than 1.0 μM) | 25 to 100 | +++ (activity was measured to be less than 1.0 μM)
CCOC(=O)N1CCC(CN2CCC3(CC2)CN(S(=O)(=O)N(C)C)Cc2ccccc23)CC1 [compound 356] | 25 to 100 | +++ (activity was measured to be less than 1.0 μM) | 25 to 100 | +++ (activity was measured to be less than 1.0 μM)
CCCOC(=O)N1C2CCC1CC(N1CCC3(CC1)CN(C(C)=O)Cc1ccccc13)C2 (stereo not shown) [compound 357] | 25 to 100 | +++ (activity was measured to be less than 1.0 μM) | 25 to 100 | +++ (activity was measured to be less than 1.0 μM)
